Experimental data taken from patent publication US12479845B2, “Imidazopyridine derivative compounds and use of same” (HANMI PHARM. CO., LTD., priority 2019, dated 2025).

Experiments:
LSD1 = LSD1 (Homo sapiens (Human), UniProt O60341); assay: Biochemical analysis of LSD1 histone demethylase inhibition (BPS Bioscience LSD1 fluorescence analysis kit, HRP/Amplex Red); settings: demethylation of Lys4 of histone H3
Protocol: The biochemical inhibition activity of the synthesized compounds on LSD1 was measured. The activity measurement was performed using LSD1 fluorescence analysis kit (available from BPS Bioscience Co., Ltd., Catalog No: 50106). This analysis kit is designed to measure activity of LSD1 enzyme. H2O2 generated upon demethylation of Lys4 moiety of histone H3 by LSD1 is reacted with HRP/Amplex Red reagent to form fluorescent Resorufin, which is measured by this kit, thereby confirming demethylation.
The results are expressed as an IC50 value. As for a control, GSK2879552 (available from GlaxoSmithKline USA) was used.

NCI-H1417 cells = assay: Cell growth suppression test (CellTiter-Glo Luminescent Cell Viability Assay, 10 days treatment); assay type: cell-based; settings: treated for 10 days
Protocol: Cell growth suppression effects of the synthesized compounds on NCI-H1417 cells were identified. The cells were treated with the synthesized compounds for 10 days. Then, in order to test the cell growth suppression, CellTiter-Glo Luminescent Cell Viability Assay (available from Promega, USA) was used. This test is to measure emission signals proportional to the number of ATPs based on a fixed amount of ATPs, which represents the presence of metabolically active cells, thereby determining the number of viable cells. The results are expressed as a Gl50 value. As for a control, GSK2879552 (available from GlaxoSmithKline USA) was used.

| IC50 (LSD1) [nM] | GI50 (NCI-H1417 cells) [nM] | GI50 (NCI-H1417 cells; Homo sapiens, 240 h) [nM] | Compound |
| --- | --- | --- | --- |
| 45 | 17 |  | 4-(7-((R)-3-aminopiperidine-1-yl)-3-(2-fluoro-4-((S)-3-hydroxypyrrolidine-1-yl)phenyl)-3H-imidazo[4,5-b]pyridine-2-yl)-2-fluorobenzonitrile [Example 35] |
| 56 |  | 90 | Cc1ccc(-n2c(-c3ccc(C#N)cc3)nc3c(N4CCC[C@@H](N)C4)ccnc32)cc1 [Example 1, (R)-4-(7-(3-aminopiperidine-1-yl)-3-(p-tolyl)-3H-imidazo[4,5-b]pyridine-2-yl)benzonitrile] |
| 53 |  | 230 | N#Cc1ccc(-c2nc3c(N4CCC(N)CC4)ccnc3n2-c2ccc(C3CC3)cc2)cc1 [Example 3, 4-(7-(4-aminopiperidine-1-yl)-3-(4-cyclopropylphenyl)-3H-imidazo[4,5-b]pyridine-2-yl)benzonitrile] |
| 44 |  | 103 | CN[C@@H]1CCCN(c2ccnc3c2nc(-c2ccc(C#N)cc2)n3-c2ccc(C3CC3)cc2)C1 [Example 4, (R)-4-(3-(4-cyclopropylphenyl)-7-(3-(methylamino)piperidine-1-yl)-3H-imidazo[4,5-b]pyridine-2-yl)benzonitrile] |
| 101 |  | 159 | N#Cc1ccc(-c2nc3c(N4CCC[C@@H](N)C4)ccnc3n2-c2ccc(C3CC3)cc2)cc1 [Example 5, (R)-4-(7-(3-aminopiperidine-1-yl)-3-(4-cyclopropylphenyl)-3H-imidazo[4,5-b]pyridine-2-yl)benzonitrile] |
| 26 |  | 99 | Cc1ccc(-n2c(-c3ccc(C#N)c(F)c3)nc3c(N4CCC[C@@H](N)C4)ccnc32)c(F)c1 [Example 7, (R)-4-(7-(3-aminopiperidine-1-yl)-3-(2-fluoro-4-methylphenyl)-3H-imidazo[4,5-b]pyridine-2-yl)-2-fluorobenzonitrile] |
| 23 |  | 56 | N#Cc1ccc(-c2nc3c(N4CCCC[C@@H](N)C4)ccnc3n2-c2ccc(C3CC3)cc2)cc1F [Example 8, (R)-4-(7-(3-aminoazepane-1-yl)-3-(4-cyclopropylphenyl)-3H-imidazo[4,5-b]pyridine-2-yl)-2-fluorobenzonitrile] |
| 38 |  | 100 | N#Cc1ccc(-c2nc3c(N4CCC[C@@H](N)C4)ccnc3n2-c2ccc(N3CCCCC3)cc2)cc1F [Example 9, (R)-4-(7-(3-aminopiperidine-1-yl)-3-(4-(piperidine-1-yl)phenyl)-3H-imidazo[4,5-b]pyridine-2-yl)-2-fluorobenzonitrile] |
| 24 |  |  | CN[C@@H]1CCCN(c2ccnc3c2nc(-c2ccc(C#N)c(F)c2)n3-c2ccc(N3CCCC3)cc2)C1 [Example 12, (R)-2-fluoro-4-(7-(3-(methylamino)piperidine-1-yl)-3-(4-(pyrrolidine-1-yl)phenyl)-3H-imidazo[4,5-b]pyridine-2-yl)benzonitrile] |
| 26 |  |  | CN(C)c1ccc(-n2c(-c3ccc(C#N)c(F)c3)nc3c(N4CCC[C@@H](N)C4)ccnc32)cc1 [Example 14, (R)-4-(7-(3-aminopiperidine-1-yl)-3-(4-(dimethylamino)phenyl)-3H-imidazo[4,5-b]pyridine-2-yl)-2-fluorobenzonitrile] |
| 28 |  |  | N#Cc1ccc(-c2nc3c(N4CCCC[C@@H](N)C4)ccnc3n2-c2ccc(N3CC4COCC4C3)cc2F)cc1F (stereo partly drawn) [Example 73, 4-(7-((R)-3-aminoazepane-1-yl)-3-(2-fluoro-4-(tetrahydro-1H-furo[3,4-c]pyrrole-5(3H)-yl)phenyl)-3H-imidazo[4,5-b]pyridine-2-yl)-2-fluorobenzonitrile] |

| Compound | IC50 (LSD1) [nM] | GI50 (NCI-H1417 cells) [nM] | GI50 (NCI-H1417 cells; Homo sapiens, 240 h) [nM] |
| --- | --- | --- | --- |
| N#Cc1ccc(-c2nc3c(N4CC[C@@H](N)C4)ccnc3n2-c2ccc(C3CC3)cc2)cc1 [Example 2, (R)-4-(7-(3-aminopyrrolidine-1-yl)-3-(4-cyclopropylphenyl)-3H-imidazo[4,5-b]pyridine-2-yl)benzonitrile] | 162 |  | 40 |
